Patent publication US20040101571A1, “Use of hydrogen peroxide for the treatment of warts” (priority 2002, published 2004)

Test system: warts (human papillomavirus-induced tumors)
Assay: Topical treatment of warts in human patients (clinical case examples)
Format: in vivo
Text: The method of the present invention neither destroys healthy, uninfected tissue nor results in any local or systemic side effects, scarring, disfigurement or discomfort to the human treated. Furthermore, the use of the present method results in the destruction of latent viral DNA found in the tumor and the surrounding tissues so that instances of incomplete resolution and are prevented. […] In accordance with the method according to this invention, “regular use of the hydrogen peroxide” is meant to mean application of the hydrogen peroxide at least once a day to the body surface containing the wart(s). A further embodiment of the method of this invention comprises placing a small amount of gel residue or gel on the tumor to be treated. It has been determined through clinical evaluation that once the method of this invention is initiated, the warts begin to shrink, no matter what size, and will totally disappear after a period of four to six weeks of treatment, or less if the gel is applied more often than once daily at bedtime.
A person presented with warts on the right foot of some two months duration; measuring about 3 mm in diameter, with raised dark spots on the surface. Hydrogen peroxide gel was applied once daily at bedtime over the wart with a Q-tip and left open to air dry. […]

## OO [hydrogen peroxide]
Clinical evaluation, applied once daily at bedtime, warts of any size begin to shrink, less if applied more often
  period of treatment until warts totally disappear: four to six
Clinical experience to date
  overall clinical experience in treatment and elimination of warts: complete eradication of the warts with no recurrence
